Source: PubChem BioAssay AID1421 (Emory University Molecular Libraries Screening Center, 2008)
Calls of active or inactive are those of the source. How the calls were made is not given here.

Target: Prostaglandin E2 receptor EP2 subtype (Homo sapiens) (UniProt P43116)
Assay: compounds shifting PGE2 potency at EP2 – cell-based, human EP2, PGE2 EC50 shift, dose response (AID 1421)
Details: EP2-expressing cells, PGE2 EC50 shift by compound

Prostaglandin E2 receptor EP2 subtype (Homo sapiens), sequence (P43116 whole entry, looked up): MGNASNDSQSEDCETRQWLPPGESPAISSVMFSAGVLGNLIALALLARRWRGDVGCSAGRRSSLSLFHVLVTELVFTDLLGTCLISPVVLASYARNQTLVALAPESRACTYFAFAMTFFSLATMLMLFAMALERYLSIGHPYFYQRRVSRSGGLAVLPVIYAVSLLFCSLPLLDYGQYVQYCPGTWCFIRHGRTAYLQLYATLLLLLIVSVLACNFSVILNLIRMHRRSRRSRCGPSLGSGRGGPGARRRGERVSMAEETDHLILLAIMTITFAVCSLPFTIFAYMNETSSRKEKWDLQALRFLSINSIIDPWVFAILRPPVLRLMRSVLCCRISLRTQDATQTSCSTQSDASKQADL

SMILES	outcome
CCOc1cc(-c2noc(-c3ccncc3)n2)cc(Br)c1OC	active
CCC(=O)N(CCC(Cc1ccccc1)c1ccco1)Cc1ccco1 (stereo unspecified)	active
COc1ccccc1CNc1cc(C)ccc1C	active
CC(C)CCn1c(=O)c2ccccc2c2ccccc2c1=O	active
CCCCn1c(=O)c2ccccc2c2ccccc2c1=O	active
O=C(Nc1ccccc1-c1ccccc1)c1ccc(Br)o1	active
COC1(C)CC2C(CC1OC(=O)c1cc([N+](=O)[O-])cc([N+](=O)[O-])c1)C2(C)C (stereo unspecified)	active

Same assay, conditions: EP2-expressing cells, PGE2 EC50 shift by compound; measured here: PGE2 EC50 at 6.7 uM compound

SMILES	PGE2 EC50 with compound [nM]
CCOc1cc(-c2noc(-c3ccncc3)n2)cc(Br)c1OC	0.84
Clc1ccc(-c2nn3c(-c4ccccc4)nnc3s2)cc1	0.93
CCOC(=O)C1=C(N)OC2=C(C(=O)CC(C)(C)C2)C1c1ccc(CC)s1 (stereo unspecified)	0.96
O=C(c1cccs1)c1cn(Cc2ccccc2Cl)c2ccccc12	2.63
CC(=O)O[C@H]1CC[C@@]2(C)[C@@H](CC[C@H]3[C@H]2CC(=O)[C@]2(C)[C@@H]3C[C@H]3CC(C)=CC(=O)[C@@H]32)C1	1.34
c1ccc(-c2nn3c(C4CCCCC4)nnc3s2)cc1	1.07
O=C(COc1ccc(Br)cc1)Nc1ccc(-c2nnc(-c3ccco3)o2)cc1	0.9
CCCCc1nc2sc3c(SCC(=O)NCc4ccco4)ncnc3c2c2c1CCC2	2.5
CC1CCN(c2ccccc2NC(=O)c2ccc(F)cc2)CC1	0.69
C[C@@H]1CC[C@H]2C(C)(C)C3CC12CC[C@@]3(C)O (stereo partly specified)	0.32
CCN=C1S/C(=C\c2ccc(O)c(OCC)c2)C(=O)N1CC	0.81
CC(=C\c1ccccc1)/C=C1/SC(=S)N(C(C(=O)O)C(C)C)C1=O (stereo unspecified)	1.31
[N-]=[N+]=Nc1ccc(C(=O)CSC[C@H](NC(=O)CC[C@H](N)C(=O)O)C(=O)NCC(=O)O)cc1	0.8
CCC(=O)N(CCC(Cc1ccccc1)c1ccco1)Cc1ccco1 (stereo unspecified)	0.86
N#Cc1c(-c2cccs2)nc(SCc2ccc(Cl)cc2)[nH]c1=O	2.85
CCOP(=O)(OCC)c1nc(-c2ccc(Cl)cc2)oc1NCc1ccccc1	0.73
C=CCNC(=S)NNc1nc(Nc2ccccc2)nc(N2CCCCC2)n1	1.42
Fc1ccc(C(c2ccc(F)cc2)N2CCN(C/C=C/c3ccccc3)CC2)cc1	1.19
C/C=C(\C)c1nnc(NC(=O)OCC)s1	2.65
CCOC(=O)C1=C(CC)Nc2ccccc2N=C1NC(=O)c1oc2ccccc2c1C	1.19
Brc1cccc(-c2nnc(SCc3ccon3)n2-c2ccccc2)c1	1.06
CN(CC(=O)Nc1ccccc1Oc1ccccc1)Cc1ccccc1F	2.47
CCOC(=O)c1oc2ccccc2c1NC(=O)c1ccccc1OC	1.25
O=C(O)c1ccc(N2C(=O)/C(=C/C=C/c3ccccc3)SC2=S)cc1	2.89
CNc1oc(-c2ccc(Cl)cc2)nc1P(=O)(c1ccccc1)c1ccccc1	0.76
COc1ccc(C(=O)NCCCN2CCOCC2)cc1OC	0.99

SMILES	PGE2 EC50 with compound [nM]
CCOC(=O)C1=NN(c2cccc(C)c2)C2(S1)SC(C(C)=O)=C(C)N2c1ccccc1 (stereo unspecified)	0.31
Oc1ccc(/C=N/N(Cc2ccccc2)c2ccccc2)cc1	0.76
Cc1ccc(-n2nc3c(c2NC(=O)c2ccc(Br)o2)CSC3)c(C)c1	1.36
Cc1cc(C(=O)Nc2cccc(/C=C/C(=O)O)c2)c(C)o1	0.36
CCCn1c(C)nc2c(c1=O)c1nc3ccccc3nc1n2CCC1=CCCCC1	1.42
O=C(CSc1nnc(COc2ccccc2)n1-c1ccccc1)c1ccccc1	1.19
CCN(CC)CCN1C(=O)c2cccc3cc(N)cc(c23)C1=O	2.64
CCc1ccc2[nH]c(=O)c(CN(Cc3nnnn3C3CCCC3)C3CCCCC3)cc2c1	0.8
O=S(=O)(O)c1ccc2c(N=Nc3c(O)ccc4ccccc34)cccc2c1	1.28
Cc1ccc(C(=O)O)cc1NC(=S)NC(=O)c1ccc(-c2ccccc2)cc1	0.83
OC1(c2ccc(Cl)cc2)CN(c2ccccc2)C2=[N+]1CCS2 (stereo unspecified)	1.16
CN(C)c1nc(N2CCOCC2)nc(N(c2ccccc2)c2ccccc2)n1	0.61
CCOC(=O)C1CCCN(C(=O)c2ccc(C)cc2O)C1 (stereo unspecified)	1.44
CCC(c1nnnn1Cc1ccco1)N(Cc1cc2cc(C)cc(C)c2[nH]c1=O)CC1CCCO1 (stereo unspecified)	1.56
COc1ccccc1CNc1cc(C)ccc1C	0.77
Cc1onc(-c2ccccc2)c1C(=O)N(Cc1ccco1)Cc1cccs1	0.34
NC(=O)c1sc2nc(N3CCCCC3)c3c(c2c1N)CCCC3	2.62
COc1cnc(N(C)C)nc1Sc1cccc(Cl)c1	1.13
C=CCOc1ccc2c(c1)C(=NO)c1cc(OCC=C)ccc1-2	0.62
Cc1ccc(CSc2nc3ccccc3cc2C=O)cc1	0.73
COC(=O)c1c(NC(=O)CSc2nnc(-c3ccco3)n2Cc2ccccc2)sc(C)c1C	0.85
CCNc1nc(NCC)nc(SCCOc2ccc(C)cc2)n1	0.7
Cc1cc(C)c(N=C2CCCN2Cc2ccccc2)c(C#N)c1	1.39
CCc1nc(SCC(=O)Nc2nc3c(s2)CCCC3)c2ccccc2n1	1.51
CC1=CC(C)(C)N(S(=O)(=O)c2ccc(C)cc2)c2cc(C)ccc21	1.17
CCOC(=O)c1c(CC(C)C)csc1/N=C/C1C(=O)CCCC1=O	1

SMILES	PGE2 EC50 with compound [nM]
CCOC(=O)c1c(C=O)c(C)n(Cc2ccccc2Cl)c1C	1.34
Cc1ccc2nc(-c3ccccn3)c(Nc3ccccc3C)n2c1	0.79
CC(C)CCn1c(=O)c2ccccc2c2ccccc2c1=O	1.07
O=C(c1ccco1)N(Cc1cccc([N+](=O)[O-])c1)c1ccc(Br)cc1	1.01
CC(Sc1cnc2ccccc2n1)C(=O)O (stereo unspecified)	2.61
CCOC(=O)c1c(N)nn(C(=O)c2ccccc2)c1-c1ccccc1	2.88
COC(=O)c1c(NC(=O)CSc2nnc(-c3cccnc3)n2Cc2ccco2)sc(C)c1C	0.79
CC(Sc1nc2ccccc2n1C)C(=O)NC(c1ccccc1)c1ccccc1 (stereo unspecified)	1.24
c1ccc(Cc2nc3ccccc3n2Cc2ccccc2)cc1	0.81
CCOc1ccccc1C(=O)Nc1ccsc1C(=O)OC	1.32
O=S(Cc1cc(Sc2ccccc2)nc(-c2ccccc2)n1)c1ccccc1 (stereo unspecified)	1.15
O=C(CN1CCCCCC1)Nc1ccccc1Oc1ccccc1	0.96
CCCc1cc(=O)n2[nH]c(NCc3cccs3)nc2n1	2.54
Cn1c(=O)c2c(nc(SCC(=O)N3CCc4ccccc4C3)n2C)n(C)c1=O	1.51
O=c1c2cn[nH]c2nc(SCc2ccccc2F)n1-c1ccc(Br)cc1	0.77
O=C(O)NCc1ccccc1 (tested in a mixture with another compound)	1.38
CCCCn1c(=O)c2ccccc2c2ccccc2c1=O	0.96
Cc1cc(C)n(CCOc2ccc(Cl)cc2Cl)n1	0.63
CC(Cc1ccccc1)NC(=O)C1(c2ccccc2)CCOCC1 (stereo unspecified)	1.2
CC(C)NC(=S)NN=C1CCCCCCCCCCC1	0.97
O=c1c2ccccc2nc(N2CCCC2)n1-c1ccc(Cl)cc1	2.64
Brc1ccc(Cn2c(-c3ccc(Br)o3)nc3ccccc32)o1	2.59
COC(=O)c1cc2ccsc2n1Cc1cccc(F)c1	0.95
COc1ccc(OC)c(C(=O)c2coc3ccc(OCC(=O)O)cc23)c1	0.98
c1ccc(-c2csc3ncnc(N4CCc5ccccc5C4)c23)cc1	1.1
Cc1ccc(S(=O)(=O)NCC(=O)N(c2ccccc2)C(C(=O)NCc2ccccc2)c2ccco2)cc1 (stereo unspecified)	1

SMILES	PGE2 EC50 with compound [nM]
O=C(Cc1ccc(F)cc1)Nc1ccccc1Sc1ccccc1	0.7
Fc1ccc(Sc2nc(-c3ccccc3)nnc2C(F)(F)F)cc1	0.94
COc1cccc(/C=N/c2oc(-c3ccccc3)cc2C#N)c1O	1.17
O=C(CSc1ncnc2c1oc1ccccc12)Nc1ccccc1F	1.86
COC(=O)CSc1nc(-c2ccccc2)nc2ccccc12	1.02
COCCn1c(SCC(=O)NCCc2ccccc2)nnc1-c1ccco1	1.4
O=C(CC(Sc1ccccc1)c1cccs1)c1ccco1 (stereo unspecified)	0.88
Cc1nccc2[nH]c(=O)c(C(=O)NC3CCCCC3C)cc12 (stereo unspecified)	1.44
C/C(=N\N(Cc1ccccc1)c1ccccc1)c1ccncc1	1.48
O=C(NCc1ccco1)C(c1cccs1)N(C(=O)Cc1cccs1)c1ccccc1 (stereo unspecified)	1.49
O=C(/C=C/Nc1ccccc1Oc1ccccc1)c1ccco1	2.67
O=C(Cc1ccccc1)Nc1ccccc1N1CCN(c2ccccc2)CC1	0.95
O=C(Nc1ccccc1-c1ccccc1)c1ccc(Br)o1	1.27
CN(c1ccccc1)C1CCCCC1NS(=O)(=O)c1ccc(Cl)cc1 (stereo unspecified)	2.43
COc1ccc(OC)c(C(=O)CSc2nnc(Cc3cccs3)n2CCc2ccccc2)c1	1.33
COC(=O)c1c(NC(=O)Cc2cccs2)sc2c1CCC(C)C2 (stereo unspecified)	0.94
CCOC(=O)C1=CN(CC2CCCO2)C=C(C(=O)OCC)C1c1ccccc1C(F)(F)F (stereo unspecified)	1.3
COC1(C)CC2C(CC1OC(=O)c1cc([N+](=O)[O-])cc([N+](=O)[O-])c1)C2(C)C (stereo unspecified)	2.79
C=CCn1c(-c2oc3nc(-c4ccccc4)cc(-c4ccccc4)c3c2N)n[nH]c1=S	1.45
O=C(c1ccc(Cl)cc1)c1oc2ccccc2c1CS(=O)c1ccccc1 (stereo unspecified)	0.87
COc1ccc(-c2cc(C(F)(F)F)nc(NCc3ccco3)n2)cc1OC	0.53
CCOc1nc(-c2ccccc2O)nc2ccccc12	1.1
O=C(COc1cccc2ccccc12)N1c2ccccc2CCc2ccccc21	1.19
COC(=O)c1nc(NC(=O)C(C)(C)C)n[nH]1	2.41
CC(=O)c1ccc(S(=O)(=O)NCCCC(=O)NCCc2ccccn2)cc1	1.15
CCOC(=O)c1c(-c2cccs2)csc1NC(=O)COC(=O)c1c(C)noc1C	0.32
